Test results published in ChEMBL document CHEMBL1201862, “PubChem BioAssay data set” (2004).
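Assay format: 96-well plates, 48-hour exposure. Here, GI50 denotes the concentration required for 50% inhibition of growth.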 The source made the active and inactive calls. Rule as the data show it: active = GI50 up to about 1.1 µM and inactive = higher.

Legend:
Experiment in all cases: growth of human tumour cells (NCI), 48 h
SK-MEL-5 = test system: SK-MEL-5
LOX IMVI = test system: LOX IMVI
786-0 = test system: 786-0
IGROV-1 = test system: IGROV-1
K562 = test system: K562
HCT-116 = test system: HCT-116
SNB-19 = test system: SNB-19
UO-31 = test system: UO-31
M14 = test system: M14
SF-295 = test system: SF-295
UACC-257 = test system: UACC-257
LXFL 529 = test system: LXFL 529
NCI-H522 = test system: NCI-H522
T47D = test system: T47D
DU-145 = test system: DU-145
MCF7 = test system: MCF7
NCI/ADR-RES = test system: NCI/ADR-RES
Hs-578T = test system: Hs-578T
PC-3 = test system: PC-3
MDA-N = test system: MDA-N

SMILES | GI50 (SK-MEL-5) | GI50 (LOX IMVI) | GI50 (786-0) | GI50 (IGROV-1) | GI50 (K562) | GI50 (HCT-116) | GI50 (SNB-19) | GI50 (UO-31) | GI50 (M14) | GI50 (SF-295) | GI50 (UACC-257) | GI50 (LXFL 529) | GI50 (NCI-H522) | GI50 (T47D) | GI50 (DU-145) | GI50 (MCF7) | GI50 (NCI/ADR-RES) | GI50 (Hs-578T) | GI50 (PC-3) | GI50 (MDA-N)
O=CCCCC(Sc1ccccc1)Sc1ccccc1 | 15.8 µM (inactive) | 13.7 µM (inactive) | 19.1 µM (inactive) | 19.9 µM (inactive) | 14.4 µM (inactive) | 12.4 µM (inactive) | 45.4 µM (inactive) | 14.7 µM (inactive) | 22.9 µM (inactive) | 18.1 µM (inactive) | 21.1 µM (inactive) | 13 µM (inactive) | > 100 µM (inactive) | – | – | – | – | – | – | –
CC1(C)OC(=O)C(=C2CCC(C(=O)Nc3cccc(C(F)(F)F)c3)N2)C(=O)O1 (stereo not given) | 30.1 µM (inactive) | 60.4 µM (inactive) | > 100 µM (inactive) | > 100 µM (inactive) | 33.4 µM (inactive) | > 100 µM (inactive) | 41.2 µM (inactive) | > 100 µM (inactive) | 64 µM (inactive) | 75.5 µM (inactive) | 40.3 µM (inactive) | 39.6 µM (inactive) | 39.8 µM (inactive) | – | – | – | – | – | – | –
CCOc1ccc(/N=C/c2ccnc3ccccc23)cc1 | 8.15 µM (inactive) | 13.2 µM (inactive) | 57.1 µM (inactive) | 43 µM (inactive) | 3.11 µM (inactive) | 0.912 µM (active) | 82.8 µM (inactive) | 45.2 µM (inactive) | 30.3 µM (inactive) | 49.1 µM (inactive) | 98.6 µM (inactive) | 16.2 µM (inactive) | 36.3 µM (inactive) | 47.9 µM (inactive) | 60.3 µM (inactive) | 5.98 µM (inactive) | 35.9 µM (inactive) | 40.4 µM (inactive) | 31.5 µM (inactive) | 30.1 µM (inactive)
CCO[C@@H]1C2C=CC(C2)[C@H]1[N+](=O)[O-] (stereo not given in full) | > 100 µM (inactive) | > 100 µM (inactive) | > 100 µM (inactive) | > 100 µM (inactive) | 73.5 µM (inactive) | > 100 µM (inactive) | > 100 µM (inactive) | > 100 µM (inactive) | > 100 µM (inactive) | > 100 µM (inactive) | > 100 µM (inactive) | > 100 µM (inactive) | 64 µM (inactive) | – | – | – | – | – | – | –
COc1ccc(/C=N/N=C(\N)NO)cc1F | 5.02 µM (inactive) | 10.4 µM (inactive) | 13.7 µM (inactive) | 31.3 µM (inactive) | 8 µM (inactive) | 27 µM (inactive) | 37.6 µM (inactive) | 14 µM (inactive) | 14.2 µM (inactive) | 23 µM (inactive) | 46.6 µM (inactive) | 11.6 µM (inactive) | 22.1 µM (inactive) | – | – | – | – | – | – | –
COc1ccc2nc3ccccc3c(NCCN(C)CCCl)c2c1 | 0.644 µM (active) | 0.336 µM (active) | 0.21 µM (active) | 0.469 µM (active) | 0.337 µM (active) | 0.249 µM (active) | 1.12 µM (inactive) | 1.16 µM (inactive) | 0.843 µM (active) | 0.728 µM (active) | 1.64 µM (inactive) | 0.393 µM (active) | 0.282 µM (active) | – | 1.12 µM (active) | 0.587 µM (active) | 0.647 µM (active) | – | 0.205 µM (active) | 0.344 µM (active)
O=C(CC1=Nc2nnc(-c3nnc4n3C(=O)C(CC(=O)c3cccnc3)=N4)n2C1=O)c1cccnc1 | > 100 µM (inactive) | > 100 µM (inactive) | > 100 µM (inactive) | > 100 µM (inactive) | > 100 µM (inactive) | > 100 µM (inactive) | > 100 µM (inactive) | > 100 µM (inactive) | > 100 µM (inactive) | > 100 µM (inactive) | > 100 µM (inactive) | > 100 µM (inactive) | > 100 µM (inactive) | – | – | – | – | – | – | –
CCC1(O)C(=O)OCc2c1cc1n(c2=O)Cc2cc3ccc(C=O)cc3nc2-1 (stereo not given) | 1.83 µM (inactive) | 0.472 µM (active) | 0.608 µM (active) | 8.09 µM (inactive) | 1.91 µM (inactive) | 1.34 µM (inactive) | 2.04 µM (inactive) | 1.83 µM (inactive) | 1.12 µM (active) | 3.23 µM (inactive) | 6.19 µM (inactive) | 12.8 µM (inactive) | – | 0.655 µM (active) | 0.466 µM (active) | 0.335 µM (active) | 0.574 µM (active) | 17.8 µM (inactive) | 5.53 µM (inactive) | 5.56 µM (inactive)
COc1ccc(CC(C)N)cc1 (stereo not given) [PARA-METHOXYAMPHETAMINE] | > 100 µM (inactive) | > 100 µM (inactive) | > 100 µM (inactive) | > 100 µM (inactive) | > 100 µM (inactive) | > 100 µM (inactive) | > 100 µM (inactive) | > 100 µM (inactive) | > 100 µM (inactive) | > 100 µM (inactive) | > 100 µM (inactive) | > 100 µM (inactive) | > 100 µM (inactive) | – | – | – | – | – | – | –
